In the assay the target is T1, full-length SARM1 (FL-SARM1) (Homo sapiens, UniProt Q6SZW1).
T1 sequence (Q6SZW1 28-724): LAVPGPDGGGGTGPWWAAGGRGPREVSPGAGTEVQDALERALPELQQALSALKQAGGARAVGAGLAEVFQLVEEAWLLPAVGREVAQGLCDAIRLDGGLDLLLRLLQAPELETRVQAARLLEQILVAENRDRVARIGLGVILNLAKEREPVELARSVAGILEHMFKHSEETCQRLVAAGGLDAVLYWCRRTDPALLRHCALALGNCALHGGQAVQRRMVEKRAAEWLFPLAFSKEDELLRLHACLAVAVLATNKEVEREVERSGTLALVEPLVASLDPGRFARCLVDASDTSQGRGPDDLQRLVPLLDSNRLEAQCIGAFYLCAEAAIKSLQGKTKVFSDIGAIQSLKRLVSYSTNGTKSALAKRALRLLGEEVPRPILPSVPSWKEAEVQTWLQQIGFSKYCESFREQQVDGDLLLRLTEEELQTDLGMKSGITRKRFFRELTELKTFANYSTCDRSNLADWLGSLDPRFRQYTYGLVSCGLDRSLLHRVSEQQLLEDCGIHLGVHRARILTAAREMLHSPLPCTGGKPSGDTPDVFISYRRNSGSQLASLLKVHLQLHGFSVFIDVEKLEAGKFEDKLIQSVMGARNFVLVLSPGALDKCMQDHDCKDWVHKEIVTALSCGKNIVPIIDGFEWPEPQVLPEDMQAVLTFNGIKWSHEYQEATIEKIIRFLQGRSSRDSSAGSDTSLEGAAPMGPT
Briefly: FL-SARM1 cellular lysate assay (NAD/NADH-Glo readout of remaining NAD+). As to conditions: SARM1 cellular lysate from transfected HEK293T cells, NAD+ and NMN, 11 point curve.

One may read the IC50 as the concentration needed to halve the response being measured. Read a high IC50 as a need for much substance.

Method: Preparation of full-length SARM1 (FL-SARM1) lysate: HEK293T cells (ATCC: CRL-3216) were grown on 150 mm TC-treated dishes to 80-90% confluency in complete DMEM (Thermo Fisher: 11965175) supplemented with 10% HI-FBS (VWR: 10802-772), 1× Pen/Strep (Thermo Fisher: 15140122), 1× NEAA (Thermo Fisher: 1140050), 1× glutamax (Thermo Fisher: 35050061), and 1 mM sodium pyruvate (Thermo Fisher: 11360070)) at 37° C. and 5% CO2. One hour prior to transfection, the media was replaced with fresh, 37° C. complete DMEM (20 mL per one 150 mm dish) supplemented with additional 10 mM glucose (Alfa Aesar AAJ60067EQE). Per one 150 mm dish, 30 μg FL-SARM1 (SEQ. ID. 1; cloned in-house) plasmid was dissolved in 1 mL DMEM at ambient temperature and were mixed by inverting the tube 8-10 times. 90 μL of GenJet™ in vitro DNA transfection reagent (Ver2) was dissolved in 1 mL DMEM at ambient temperature and were mixed by inverting the tube 8-10 times. The plasmid and transfection agent solutions were combined, mixed by 8-10 inversions and incubated for 10 minutes at ambient temperature. 2 mL of this transfection mixture was added to each dish containing HEK293T cells as prepared above followed by a gentle mixing of 4-5 horizontal rotations. The dishes were incubated at 37° C. and 5% CO2 for 24 h. The dishes were removed from the incubator, the medium was aspirated and the cells were scraped off using cell scrapers in ice-cold 1× PBS (5 mL/dish, Thermo Fisher Scientific 10010023). The collected cells were centrifuged at 300 g for 5 minutes at 4° C. The supernatant was aspirated and the pellet was frozen at −80° C. until needed. The cell pellet from 30 dishes was dissolved in 30 mL 1× PBS supplemented with 4 tablets of Complete, Mini EDTA-free protease inhibitor cocktail at 4° C. This mixture was sonicated on ice for 10 minutes at 50% amplitude with a 1 second on/1 second off interval using a Model 120 sonicator (Thermo Fisher Scientific, FB120110). The lysate was centrifuged at 16000 g for 10 minutes at 4° C.
To a white 384-well Proxiplate (PerkinElmer, PE-6008280) was added 50 nL/well of a DMSO solution containing test compounds followed by 7.5 mL/well of a 0.067 mg/mL solution of SARM1 cellular lysate in reaction buffer (DPBS containing CHAPSO (0.1%) and fatty acid free BSA (0.032%)). The plate was centrifuged for 1 minute at 1000 RPM and then placed in an incubator at 23° C. for 15 minutes. To the wells were added 2.5 mL/well of a solution containing 40 mM NAD^+ and 4 mM NMN in reaction buffer. The plate was centrifuged for 1 min at 1000 RPM, the plate was sealed and placed in an incubator at 23° C. for 3.5 hours before adding 3.5 mL/well of NAD/NADH-Glo™ solution (preparation as described by Promega using the extended detection protocol). The plate was centrifuged for 1 minute at 1000 RPM and then incubated at 23° C. for 20 minutes. 1 mL/well of a 3.625 mM solution of menadione in DMSO was added and the plate was centrifuged for 1 minute at 1000 RPM. […] Percent inhibition was calculated as follows:
IC50 values were calculated from an 11 point curve using ½ log dilutions using a four-parameter logistic regression curve fit.

As for `O=C(Nc1ccc(C2CC2)c(-c2cncc(F)c2)c1)N1C2CCCC1C2` [Example 66, N-(4-cyclopropyl-3-(5-fluoropyridin-3-yl)phenyl)-6-azabicyclo[3.1.1]heptane-6-carboxamide], the IC50 is, setting by setting: (Activity (μM)) 2 µM; (Activity) 1 to 10 µM.
As for `COc1ccc(-c2cc(NC(=O)N3C4CCCC3C4)ccc2C)cn1` [Example 67, N-(3-(6-methoxypyridin-3-yl)-4-methylphenyl)-6-azabicyclo[3.1.1]heptane-6-carboxamide], the 50% inhibitory concentration (IC50) by setting is: (Activity (μM)) 0.4 µM; (Activity) 0.0001 to 1 µM.
In the same order, the values of `COc1ncccc1-c1cc(NC(=O)N2C3CCCC2C3)ccc1C` [Example 68, N-(3-(2-methoxypyridin-3-yl)-4-methylphenyl)-6-azabicyclo[3.1.1]heptane-6-carboxamide] are 2.5 µM and 1 to 10 µM.
For `Cc1ccc(NC(=O)N2C3CCCC2C3)cc1-c1cccnc1C` [Example 69, N-[4-methyl-3-(2-methylpyridin-3-yl)phenyl]-6-azabicyclo[3.1.1]heptane-6-carboxamide], the IC50 is 1.6 µM (Activity (μM)) and 1 to 10 µM (Activity).
For `Cc1ccc(-c2cc(NC(=O)N3C4CCCC3C4)ccc2C)cn1` [Example 70, N-[4-methyl-3-(6-methylpyridin-3-yl)phenyl]-6-azabicyclo[3.1.1]heptane-6-carboxamide], the IC50 is 0.3 µM (Activity (μM)) and 0.0001 to 1 µM (Activity).
Taken in the same sequence, the figures for `COc1cncc(-c2cc(NC(=O)N3C4CCCC3C4)ccc2C)c1` [Example 71, N-(3-(5-methoxypyridin-3-yl)-4-methylphenyl)-6-azabicyclo[3.1.1]heptane-6-carboxamide] were 0.08 µM and 0.0001 to 1 µM.
For the compound `Cc1ccc(NC(=O)N2C3CCCC2C3)cc1-c1cncc(C#N)c1` [Example 72, N-(3-(5-cyanopyridin-3-yl)-4-methylphenyl)-6-azabicyclo[3.1.1]heptane-6-carboxamide], the half-maximal inhibitory concentration (IC50) was 0.1 µM (Activity (μM)) and 0.0001 to 1 µM (Activity).
On to `O=C(Nc1cccc(-c2cncc(F)c2)c1)N1C2CCCC1C2` [Example 73, N-[3-(5-fluoropyridin-3-yl)phenyl]-6-azabicyclo[3.1.1]heptane-6-carboxamide], for which the half-inhibitory concentration (IC50) was 1.2 µM (Activity (μM)) and 1 to 10 µM (Activity).
`O=C(Nc1ccc(F)c(-c2cncc(F)c2)c1)N1C2CCCC1C2` [Example 74, N-(4-fluoro-3-(5-fluoropyridin-3-yl)phenyl)-6-azabicyclo[3.1.1]heptane-6-carboxamide]: the IC50 is 2.8 µM (Activity (μM)) and 1 to 10 µM (Activity).
As for `O=C(Nc1ccc(C(F)(F)F)c(-c2cncc(F)c2)c1)N1C2CCCC1C2` [Example 75, N-(3-(5-fluoropyridin-3-yl)-4-(trifluoromethyl)phenyl)-6-azabicyclo[3.1.1]heptane-6-carboxamide], the IC50 is, setting by setting: (Activity (μM)) 1 µM; (Activity) 1 to 10 µM.
Turning to `CCc1ccc(NC(=O)N2[C@@H]3C[C@H](C)C[C@H]2C3)cc1-c1cncc(F)c1` [Example 76, trans-N-(4-ethyl-3-(5-fluoropyridin-3-yl)phenyl)-3-methyl-6-azabicyclo[3.1.1]heptane-6-carboxamide], the IC50 reads like this: (Activity (μM)) 0.03 µM; (Activity) 0.0001 to 1 µM.
On to `Cc1ccc(NC(=O)N2CCOc3cccc(C#N)c3C2)cc1-c1cncc(F)c1` [Example 81], for which the IC50 is 5.6 µM (Activity (μM)) and 1 to 10 µM (Activity).
`CCc1ccc(NC(=O)N2[C@@H]3C[C@@H](C)C[C@H]2C3)cc1-c1cncc(F)c1` [Example 82, cis-N-(4-ethyl-3-(5-fluoropyridin-3-yl)phenyl)-3-methyl-6-azabicyclo[3.1.1]heptane-6-carboxamide]: the 50% inhibitory concentration (IC50) by setting is: (Activity (μM)) 0.02 µM; (Activity) 0.0001 to 1 µM.
Take `Cc1ccc(NC(=O)N2[C@@H]3C[C@H](C)C[C@H]2C3)cc1-c1cncc(F)c1` [Example 84, cis-N-(3-(5-fluoropyridin-3-yl)-4-methylphenyl)-3-methyl-6-azabicyclo[3.1.1]heptane-6-carboxamide]: the 50% inhibitory concentration (IC50) runs as follows: (Activity (μM)) 0.007 µM; (Activity) 0.0001 to 1 µM.
`Cc1ncc(-c2cc(NC(=O)N3C4CCCC3C4)ccc2C)cn1` [Example 85, N-(4-methyl-3-(2-methylpyrimidin-5-yl)phenyl)-6-azabicyclo[3.1.1]heptane-6-carboxamide]: the concentration for half-maximal inhibition (IC50) is 1.8 µM (Activity (μM)) and 1 to 10 µM (Activity).
Taken in the same sequence, the figures for `Cc1ccc(NC(=O)N2C3CCCC2C3)cc1-c1cccnc1` [Example 86, N-(4-methyl-3-(pyridine-3-yl)phenyl)-6-azabicyclo[3.1.1]heptane-6-carboxamide] were 0.2 µM and 0.0001 to 1 µM.
On to `Cc1ccc(NC(=O)N2C3CCCC2C3)cc1-c1cncc(F)c1` [Example 87, N-(3-(5-fluoropyridin-3-yl)-4-methylphenyl)-6-azabicyclo[3.1.1]heptane-6-carboxamide], for which the IC50 by setting is: (Activity (μM)) 0.1 µM; (Activity) 0.0001 to 1 µM.
For the compound `Cc1ccc(NC(=O)N2C3CCCC2C3)cc1-c1cnc(C)c(F)c1` [Example 89, N-(3-(5-fluoro-6-methylpyridin-3-yl)-4-methylphenyl)-6-azabicyclo[3.1.1]heptane-6-carboxamide], the IC50 is 0.4 µM (Activity (μM)) and 0.0001 to 1 µM (Activity).
Taken in the same sequence, the figures for `COc1c(F)cncc1-c1cc(NC(=O)N2C3CCCC2C3)ccc1C` [Example 90, N-(3-(5-fluoro-4-methoxypyridin-3-yl)-4-methylphenyl)-6-azabicyclo[3.1.1]heptane-6-carboxamide] were 1.9 µM and 1 to 10 µM.
Taken in the same sequence, the figures for `Cc1ccncc1-c1cc(NC(=O)N2C3CCCC2C3)ccc1C` [Example 91, N-(4-methyl-3-(4-methylpyridin-3-yl)phenyl)-6-azabicyclo[3.1.1]heptane-6-carboxamide] were 0.4 µM and 0.0001 to 1 µM.
As for `Cc1ccc(NC(=O)N2C3CCCC2C3)cc1-c1cncc(F)c1C` [Example 92, N-(3-(5-fluoro-4-methylpyridin-3-yl)-4-methylphenyl)-6-azabicyclo[3.1.1]heptane-6-carboxamide], the IC50 is, setting by setting: (Activity (μM)) 0.5 µM; (Activity) 0.0001 to 1 µM.
Turning to `Cc1ccc(NC(=O)N2C3CCCC2(C(=O)N2CCCC2)C3)cc1-c1cncc(F)c1` (stereo not drawn) [Example 93, N-[3-(5-fluoropyridin-3-yl)-4-methylphenyl]-1-(pyrrolidine-1-carbonyl)-6-azabicyclo[3.1.1]heptane-6-carboxamide], the IC50 by setting is: (Activity (μM)) 4.4 µM; (Activity) 1 to 10 µM.
For `Cc1ccc(NC(=O)N2C3CCC2COC3)cc1-c1cncc(F)c1` [Example 94, N-[3-(5-fluoropyridin-3-yl)-4-methylphenyl]-3-oxa-8-azabicyclo[3.2.1]octane-8-carboxamide], the half-maximal inhibitory concentration (IC50) by setting is: (Activity (μM)) 2.8 µM; (Activity) 1 to 10 µM.
In the case of `Cc1ccc(NC(=O)N2CC3CC2c2ccccc23)cc1-c1cncc(F)c1` (stereo not drawn) [Example 95, N-[3-(5-fluoropyridin-3-yl)-4-methylphenyl]-9-azatricyclo[6.2.1.02,7]undeca-2,4,6-triene-9-carboxamide], the IC50 (Activity (μM)) amounted to 0.2 µM and the 50% inhibitory concentration (IC50) (Activity) lay within 0.0001 to 1 µM.
Turning to `Cc1ccc(NC(=O)N2C3CCCC2(C#N)C3)cc1-c1cncc(F)c1` (stereo not drawn) [Example 96, 1-cyano-N-[3-(5-fluoropyridin-3-yl)-4-methylphenyl]-6-azabicyclo[3.1.1]heptane-6-carboxamide], the IC50 (Activity (μM)) came to 0.07 µM and the IC50 (Activity) is 0.0001 to 1 µM.
Take `Cc1ccc(NC(=O)N2C3CCC2CC3)cc1-c1cncc(F)c1` [Example 97, N-[3-(5-fluoropyridin-3-yl)-4-methylphenyl]-7-azabicyclo[2.2.1]heptane-7-carboxamide]: the IC50 by setting is: (Activity (μM)) 0.4 µM; (Activity) 0.0001 to 1 µM.
Regarding `Cc1nnc(C23CCCC(C2)N3C(=O)Nc2ccc(C)c(-c3cncc(F)c3)c2)o1` (stereo not drawn) [Example 98, N-[3-(5-fluoro-3-pyridyl)-4-methyl-phenyl]-1-(5-methyl-1,3,4-oxadiazol-2-yl)-6-azabicyclo[3.1.1]heptane-6-carboxamide], the IC50 is 0.2 µM (Activity (μM)) and 0.0001 to 1 µM (Activity).
In the same order, the values of `Cc1ccc(NC(=O)[C@H]2C[C@H](C3CC3(F)F)C2)cc1-c1cccnc1` (stereo partly drawn) [Example 99, trans-3-(2,2-difluorocyclopropyl)-N-(4-methyl-3-pyridin-3-ylphenyl)cyclobutane-1-carboxamide] are 5.1 µM and 1 to 10 µM.
`Cc1ccc(NC(=O)[C@H]2C[C@@H](C3CC3(F)F)C2)cc1-c1cccnc1` (stereo partly drawn) [Example 100, cis-3-(2,2-difluorocyclopropyl)-N-(4-methyl-3-pyridin-3-ylphenyl)cyclobutane-1-carboxamide]: the IC50 was 1.5 µM (Activity (μM)) and 1 to 10 µM (Activity).
In the case of `Cc1ccc(NC(=O)C2C3CC2CN(CC(F)(F)F)C3)cc1-c1cncc(F)c1` (stereo not drawn) [Example 101, N-[3-(5-fluoropyridin-3-yl)-4-methylphenyl]-3-(2,2,2-trifluoroethyl)-3-azabicyclo[3.1.1]heptane-6-carboxamide], the 50% inhibitory concentration (IC50) is, setting by setting: (Activity (μM)) 0.8 µM; (Activity) 0.0001 to 1 µM.

(Values after patent US20250361234A1 (NICO THERAPEUTICS, INC., priority 2022, published 2025).)
